Test results reported in US6503943B1, “Platinum complex, its preparation and therapeutic application” (priority 1998, dated 2003).
Several values for one entry are separate records, joined by “and”; a condition that tells them apart may be missing. Identical values can stand only once.

How the values were obtained:
leucaemia L1210 [1] = assay: Antitumor effect at animals with leucaemia L1210, continual regimen (Example 7); type: in vivo, mice DBA2; settings: for Survival (in % of control) / Survival time, Geom. mean: 1th-9th day
[2] = test system: ascitic form of Ehrlich tumor (ATE); assay: Antitumor effect at animals with ascitic form of Ehrlich tumor (ATE) (Example 11);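 on all read-outs here: half of each dose group killed on day 10, tumor mass taken as animal mass lost on ascites aspiration, ascitocrit by microhematocrit centrifuge, rest followed daily for survival versus reference group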; settings: for Survival (in % of control) / Survival time, Geom. mean / Total ascitocrit (%) of control / Total ascitocrit (mass of cell fraction of a tumor), Arithm. mean / Tumor mass (%) of control / Tumor mass, Arithm. mean: 1th-9th day; for Total ascitocrit (%) of control / Total ascitocrit (mass of cell fraction of a tumor), Arithm. mean / Tumor mass (%) of control / Tumor mass, Arithm. mean: dissection 10th day; for Evaluation of antitumor effect (survival time versus control), in words: p.o.×9, Platidiam 8 and 4 mg/kg s.c.×1, Tab. 8.1
Protocol: After termination of application, one half of animals in each dosage group was destroyed at 10th day after inoculation in ether narcosis, the ascits were sucked out after laparotomy and the mass of a tumor at each of the animals was determined from the difference of mass before and after sucking out the ascit. Ascitocrit in ascitic liquor of single animals was determined on microhematocrit centrifuge in heparinized capillary tubes of 75 mm length. The value of “total ascitocrit”corresponding to a mass of cells in ascitic liquor has been determined from percentage of ascitocrit and mass of the tumor. Remaining animals were left for monitoring the survival time. In these animals, the survival time was monitored on daily basis. The dependence of the survival time value on the applied dose was evaluated in comparison with the reference group.
The single estimated time points as biological responses were evaluated by a test of equivalence of two mean values (Student's t-test). Geometric mean was calculated from single values of survival time, arithmetic means were calculated from single values of tumor mass and total ascitocrit. Difference between mean values was evaluated by a test of equivalence of two mean values (Student's t-test) under presumption of normal probability distribution of mass values as well as of total ascitocrit values and of logarithmic/normal distribution of temporal values, all under presumption of possible unknown disseminations. Those diferences in mean values, whose values of a test criterium exceeded the critical value at the 5% and 1% significance level were evaluated as statistically significant and highly statistically significant, respectively.
The optimum dosage has been calculated from values of survival time according to the proportional risk model of Cox (Carter et al., 1982). Parameters of Weinbull distribution and logarithmic transformation of introductory data were used for estimation of a basic and modified survival function from experimental data.

leucaemia L1210 [3] = assay: Antitumor effect at animals with leucaemia L1210, continual versus intermitent regimen (Example 6); type: in vivo, mice DBA2
leucaemia L1210 [4] = assay: Antitumor effect at animals with leucaemia L1210, intermitent administration 3x (Example 5); type: in vivo, mice DBA2; settings: for Survival (in % of control) / Survival time, Geom. mean: 1st, 5th and 9th day
leucaemia L1210 [5] = assay: Antitumor effect at animals with leucaemia L1210, single administration (Example 4); type: in vivo, mice DBA2
Gardner lymphosarcoma = assay: Antitumor effect at animals with solid form of Gardner lymphosarcoma (Example 8); type: in vivo, mice C3H; settings: for Tumor mass (%) of control / Tumor mass, Arithm. mean: 5th day, tumors weighed 14th day
[6] = test system: ascitic form of Ehrlich tumor (ATE); assay: Antitumor effect at animals with ascitic form of Ehrlich tumor (ATE) (Example 10); type: in vivo, mice ICR; settings: for Survival (in % of control) / Survival time, Geom. mean / Tumor mass (%) of control / Tumor mass, Arithm. mean: 1st-9th day; for Tumor mass (%) of control / Tumor mass, Arithm. mean: dissection 10th day
[7] = test system: mammal adenocarcinoma MC2111; assay: Antitumor effect at animals with solid form of mammal adenocarcinoma MC2111 (Example 9); type: in vivo, mice DBA1; settings: for Tumor mass (%) of control / Tumor mass, Arithm. mean: tumor size 14th day, mass from regression
[8] = 9 mg/kg/day as printed, middle dose group between 36 and 9, p.o. 3x, 1,5,9th day
[9] = 9 mg/kg/day p.o. 3x, 1,5,9th day (lowest dose group)
[10] = 12 mg/kg/day p.o. 9x, 1-9th day
[11] = 36 mg/kg/day p.o. 3x, 1,5,9th day
[12] = 3 mg/kg/day p.o. 9x, 5th-13 day
[13] = 6 mg/kg/day p.o. 9x, 5th-13 day
[14] = 12 mg/kg/day p.o. 9x, 5th-13 day

CC(=O)[O][Pt]([NH2])([Cl])([Cl])([NH]C1CCCCC1)[O]C(C)=O [LA-2, af-bis(acetato)-b-ammin-cd-dichloro-e-(cyclohexylamine)platinum (IV) complex]
Survival (in % of control) (leucaemia L1210 [1]; 3 mg/kg/day p.o. 9x): 214% | Survival time, Geom. mean (leucaemia L1210 [1]; 3 mg/kg/day p.o. 9x): 48.1 days | Increase of survival time value in comparison with the control group (leucaemia L1210 [1]; 3 mg/kg/day p.o.×9): 114% | Survival (in % of control) (leucaemia L1210 [1]; 6 mg/kg/day p.o. 9x): 137% | Survival time, Geom. mean (leucaemia L1210 [1]; 6 mg/kg/day p.o. 9x): 30.8 days | Survival (in % of control) (leucaemia L1210 [1]; 12 mg/kg/day p.o. 9x): 108% | Survival time, Geom. mean (leucaemia L1210 [1]; 12 mg/kg/day p.o. 9x): 24.4 days | Survival (in % of control) ([2]; 3 mg/kg/day p.o. 9x): 114% | Survival time, Geom. mean ([2]; 3 mg/kg/day p.o. 9x): 10.1 days | Total ascitocrit (%) of control ([2]; 3 mg/kg/day p.o. 9x): 108% | Total ascitocrit (mass of cell fraction of a tumor), Arithm. mean ([2]; 3 mg/kg/day p.o. 9x): 0.74 g | Tumor mass (%) of control ([2]; 3 mg/kg/day p.o. 9x): 90% | Tumor mass, Arithm. mean ([2]; 3 mg/kg/day p.o. 9x): 3.53 g | Survival time, Geom. mean ([2]; 6 mg/kg/day p.o. 9x): 13.2 days | Total ascitocrit (%) of control ([2]; 6 mg/kg/day p.o. 9x): 100% | Total ascitocrit (mass of cell fraction of a tumor), Arithm. mean ([2]; 6 mg/kg/day p.o. 9x): 0.69 g | Tumor mass (%) of control ([2]; 6 mg/kg/day p.o. 9x): 59% | Tumor mass, Arithm. mean ([2]; 6 mg/kg/day p.o. 9x): 2.32 g | Survival (in % of control) ([2]; 12 mg/kg/day p.o. 9x): 111% | Survival time, Geom. mean ([2]; 12 mg/kg/day p.o. 9x): 9.9 days | Total ascitocrit (%) of control ([2]; 12 mg/kg/day p.o. 9x): 95% | Total ascitocrit (mass of cell fraction of a tumor), Arithm. mean ([2]; 12 mg/kg/day p.o. 9x): 0.65 g | Tumor mass (%) of control ([2]; 12 mg/kg/day p.o. 9x): 70% | Tumor mass, Arithm. mean ([2]; 12 mg/kg/day p.o. 9x): 2.74 g | Evaluation of antitumor effect (survival time versus control), in words [2]: didnot increase the survival time statistically significant | Survival (in % of control) (leucaemia L1210 [3]; 3 mg/kg/day p.o. 9x, 1-9th day): 162% | Survival time, Geom. mean (leucaemia L1210 [3]; 3 mg/kg/day p.o. 9x, 1-9th day): 18.7 days | Survival (in % of control) (leucaemia L1210 [3]; 6 mg/kg/day p.o. 9x, 1-9th day): 173% | Survival time, Geom. mean (leucaemia L1210 [3]; 6 mg/kg/day p.o. 9x, 1-9th day): 20.0 days | Survival (in % of control) (leucaemia L1210 [3]; [8]): 160% | Survival time, Geom. mean (leucaemia L1210 [3]; [8]): 18.6 days | Survival (in % of control) (leucaemia L1210 [3]; [9]): 99% | Survival time, Geom. mean (leucaemia L1210 [3]; [9]): 11.4 days | Survival (in % of control) (leucaemia L1210 [3]; [10]): 99% | Survival time, Geom. mean (leucaemia L1210 [3]; [10]): 11.5 days | Survival (in % of control) (leucaemia L1210 [3]; [11]): 130% | Survival time, Geom. mean (leucaemia L1210 [3]; [11]): 15.1 days | Evaluation of antitumor effect (survival time versus control), in words (leucaemia L1210 [3]; LA-12 6 mg/kg p.o.×9, Platidiam 8 and 4 mg/kg s.c.×1, LA-2 any of the dosage groups): antitumor uneffective | Survival (in % of control) (leucaemia L1210 [4]; 2 mg/kg/day p.o. 3x): >129% | Survival time, Geom. mean (leucaemia L1210 [4]; 2 mg/kg/day p.o. 3x): 20.2 days | Survival (in % of control) (leucaemia L1210 [4]; 4 mg/kg/day p.o. 3x): 118% | Survival time, Geom. mean (leucaemia L1210 [4]; 4 mg/kg/day p.o. 3x): 18.5 days | Survival (in % of control) (leucaemia L1210 [4]; 8 mg/kg/day p.o. 3x): <148% | Survival time, Geom. mean (leucaemia L1210 [4]; 8 mg/kg/day p.o. 3x): 23.2 days | Optimum dose as calculated according to Carter (leucaemia L1210 [4]; intermitent oral administration 3x): 10.96 mg/kg/day p.o.×3 | Effect at the single oral dose of 10 mg/kg for IP-L 1210, in words (leucaemia L1210 [5]; 10 mg/kg (30 mg/m^2) single oral dose): no effect | Antitumor effect (survival time versus control), in words (leucaemia L1210 [5]; mouse, in vivo): No effect has been proven | Survival (in % of control) (leucaemia L1210 [5]; mouse, in vivo): 63% and 85% and 81% and 94% and 99% | Survival time, Geom. mean (leucaemia L1210 [5]; mouse, in vivo): 8.0 days and 10.7 days and 10.3 days and 11.9 days and 12.5 days | Tumor mass (%) of control (Gardner lymphosarcoma; 2 mg/kg p.o. 1x): 90% | Tumor mass, Arithm. mean (Gardner lymphosarcoma; 2 mg/kg p.o. 1x): 5.61 g | Tumor mass (%) of control (Gardner lymphosarcoma; 8 mg/kg p.o. 1x): 99% | Tumor mass, Arithm. mean (Gardner lymphosarcoma; 8 mg/kg p.o. 1x): 6.19 g | Tumor mass (%) of control (Gardner lymphosarcoma; 32 mg/kg p.o. 1x): 103% | Tumor mass, Arithm. mean (Gardner lymphosarcoma; 32 mg/kg p.o. 1x): 6.44 g | Effect on average mass of a tumor, in words (Gardner lymphosarcoma; single p.o. 32, 8 and 2 mg/kg): No effect has been observed | Survival (in % of control) ([6]; 3 mg/kg/day p.o. 9x): 161% | Survival time, Geom. mean ([6]; 3 mg/kg/day p.o. 9x): 18.4 days | Tumor mass (%) of control ([6]; 3 mg/kg/day p.o. 9x): 119% | Tumor mass, Arithm. mean ([6]; 3 mg/kg/day p.o. 9x): 3.17 g | Survival (in % of control) ([6]; 6 mg/kg/day p.o. 9x): 156% | Survival time, Geom. mean ([6]; 6 mg/kg/day p.o. 9x): 17.9 days | Tumor mass (%) of control ([6]; 6 mg/kg/day p.o. 9x): 80% | Tumor mass, Arithm. mean ([6]; 6 mg/kg/day p.o. 9x): 2.13 g | Survival (in % of control) ([6]; 12 mg/kg/day p.o. 9x): 110% | Survival time, Geom. mean ([6]; 12 mg/kg/day p.o. 9x): 12.6 days | Tumor mass (%) of control ([6]; 12 mg/kg/day p.o. 9x): 79% | Tumor mass, Arithm. mean ([6]; 12 mg/kg/day p.o. 9x): 2.10 g | Significance of mean survival time increase in comparison with untreated control (p≦0.01), in words ([6]; Tab. 7-2): do not | Tumor mass (%) of control [7, 12]: 86% | Tumor mass, Arithm. mean [7, 12]: 4.00 g | Tumor mass (%) of control [7, 13]: 83% | Tumor mass, Arithm. mean [7, 13]: 3.86 g | Tumor mass (%) of control [7, 14]: 77% | Tumor mass, Arithm. mean [7, 14]: 3.59 g | Survival (in % of control) ([7]; mouse, in vivo): 100% and 115% and 113% | Survival time, Geom. mean ([7]; mouse, in vivo): 21.7 days and 24.9 days and 24.5 days | Evaluation of antitumor effect, in words ([7]; p.o.×9 12, 6, 3 mg/kg/day, Platidiam 8 and 4 mg/kg s.c. once): No effect was observed

CC(=O)[O][Pt]([NH2])([Cl])([Cl])([NH]C12CC3CC(C)(CC(C)(C3)C1)C2)[O]C(C)=O [LA-15, af-bis(Acetato)-b-(1amino-3.5-dimethyladamantane)-c-ammin-de-dichloroplatinum (IV) Complex]
Survival (in % of control) (leucaemia L1210 [1]; 3 mg/kg/day p.o. 9x): 180% | Survival time, Geom. mean (leucaemia L1210 [1]; 3 mg/kg/day p.o. 9x): 40.5 days | Survival (in % of control) (leucaemia L1210 [1]; 6 mg/kg/day p.o. 9x): 217% | Survival time, Geom. mean (leucaemia L1210 [1]; 6 mg/kg/day p.o. 9x): 48.8 days | Survival (in % of control) (leucaemia L1210 [1]; 12 mg/kg/day p.o. 9x): 130% | Survival time, Geom. mean (leucaemia L1210 [1]; 12 mg/kg/day p.o. 9x): 29.3 days | Evaluation of antitumor effect (survival time versus control), in words (leucaemia L1210 [1]; in the dosages used, p.o.×9): antitumor effective | Increase of survival time value in comparison with the control group (leucaemia L1210 [1]; in the dosages used, p.o.×9): 130% | Survival (in % of control) ([2]; 3 mg/kg/day p.o. 9x): 99% | Survival time, Geom. mean ([2]; 3 mg/kg/day p.o. 9x): 8.8 days | Total ascitocrit (%) of control ([2]; 3 mg/kg/day p.o. 9x): 123% | Total ascitocrit (mass of cell fraction of a tumor), Arithm. mean ([2]; 3 mg/kg/day p.o. 9x): 0.84 g | Tumor mass (%) of control ([2]; 3 mg/kg/day p.o. 9x): 89% | Tumor mass, Arithm. mean ([2]; 3 mg/kg/day p.o. 9x): 3.51 g | Survival (in % of control) ([2]; 6 mg/kg/day p.o. 9x): 108% | Survival time, Geom. mean ([2]; 6 mg/kg/day p.o. 9x): 9.6 days | Total ascitocrit (%) of control ([2]; 6 mg/kg/day p.o. 9x): 59% | Total ascitocrit (mass of cell fraction of a tumor), Arithm. mean ([2]; 6 mg/kg/day p.o. 9x): 0.40 g | Tumor mass (%) of control ([2]; 6 mg/kg/day p.o. 9x): 53% | Tumor mass, Arithm. mean ([2]; 6 mg/kg/day p.o. 9x): 2.08 g | Mean value of the mass of cell fraction of the tumor (total ascitocrit) versus control, in words ([2]; 6 mg/kg/day p.o.×9): statistically significant lower | Survival (in % of control) ([2]; 12 mg/kg/day p.o. 9x): 97% | Survival time, Geom. mean ([2]; 12 mg/kg/day p.o. 9x): 8.6 days | Total ascitocrit (%) of control ([2]; 12 mg/kg/day p.o. 9x): 120% | Total ascitocrit (mass of cell fraction of a tumor), Arithm. mean ([2]; 12 mg/kg/day p.o. 9x): 0.82 g | Tumor mass (%) of control ([2]; 12 mg/kg/day p.o. 9x): 96% | Tumor mass, Arithm. mean ([2]; 12 mg/kg/day p.o. 9x): 3.77 g | Evaluation of antitumor effect (survival time versus control), in words [2]: didnot increase the survival time statistically significant | Survival (in % of control) [7, 12]: 117% | Survival time, Geom. mean [7, 12]: 25.4 days | Tumor mass (%) of control [7, 12]: 90% | Tumor mass, Arithm. mean [7, 12]: 4.19 g | Survival (in % of control) [7, 13]: 127% | Survival time, Geom. mean [7, 13]: 27.6 days | Tumor mass (%) of control [7, 13]: 85% | Tumor mass, Arithm. mean [7, 13]: 3.95 g | Survival (in % of control) [7, 14]: 118% | Survival time, Geom. mean [7, 14]: 25.5 days | Tumor mass (%) of control [7, 14]: 80% | Tumor mass, Arithm. mean [7, 14]: 3.74 g
